Measured values as given in article PMC6410080 (Viruses, 2019).
Structures can show the parent of a compound that is named as a salt. Where two headings read alike, the source gives them in different places.

How the values were obtained:
SFV [1] = assay: microbe, parasite or virus in culture; type: cell-based, Semliki Forest virus; details: Semliki Forest virus; for IC50: HeLa Kyoto, read-out: IC50 SFV (7 h); for inhibition at 10 µM: M-HeLa, 7 h, read-out: % inhibition (SFV screen)
DENV-2 = DENV-2 infection assay / secondary screen (E protein staining); type: cell-based, dengue virus serotype 2; details: Dengue virus, DENV2, Huh-7, 24 h; for inhibition at 10 µM: read-out: % inhibition (DENV-2 screen)
SINV = assay: microbe, parasite or virus in culture; type: cell-based, Sindbis virus; details: Sindbis virus, HeLa Kyoto, read-out: IC50 SINV
DENV-1 = assay: microbe, parasite or virus in culture; type: cell-based, dengue virus; details: Dengue virus, DENV1, Huh-7, read-out: IC50 DENV-1
DENV-3 = assay: microbe, parasite or virus in culture; type: cell-based, dengue virus; details: Dengue virus, DENV3, Huh-7, read-out: IC50 DENV-3
ZIKV = assay: microbe, parasite or virus in culture; type: cell-based, Zika virus
YF17D = assay: organism not typed; type: cell-based, yellow fever 17D; details: Huh-7, read-out: IC50 YF17D
HCV = assay: microbe, parasite or virus in culture; type: cell-based, hepatitis C virus; details: Hepatitis C virus, Huh7.5, read-out: IC50 HCV
VSV VLP = assay: microbe, parasite or virus in culture; type: cell-based, vesicular stomatitis virus; details: Vesicular stomatitis virus, HeLa Kyoto, 24 h, read-out: IC50 VSV
RABV VLP = assay: microbe, parasite or virus in culture; type: cell-based, rabies virus; details: Lyssavirus rabies, HeLa Kyoto, 24 h, read-out: IC50 RABV
H5N1 VLP = assay: microbe, parasite or virus in culture; type: cell-based, influenza H5N1; details: Influenza A virus, H5N1, HeLa Kyoto, 48 h, read-out: IC50 H5N1
EBOV VLP = assay: microbe, parasite or virus in culture; type: cell-based, Ebola virus; details: Zaire ebolavirus, HeLa Kyoto, 48 h, read-out: IC50 EBOV
HIV-1 = assay: microbe, parasite or virus in culture; type: cell-based, human immunodeficiency virus type 1; details: virus, HeLa TZM-bl, 24 h
HSV-1 = assay: microbe, parasite or virus in culture; type: cell-based, herpes simplex virus 1; details: 8 h
VACV = assay: microbe, parasite or virus in culture; type: cell-based, vaccinia virus
[2] = system: DID-labelled SFV hemifusion/fusion; type: cell-based, Semliki Forest virus; details: HeLa Kyoto, 10 μM (20 μM Raloxifene; Bafilomycin 100 nM), 40 min at 37 °C
SFV [3] = type: cell-based, Semliki Forest virus
viruses/VLPs tested = type: cell-based
HeLa Kyoto cells = details: human
in vitro [4] = details: human, % viability (SFV screen)
in vitro [5] = details: human
Huh7 cells = assay: MTT assay, Huh7 cells; details: for TC50 DENV-2 (7 + 17 h): Huh7, compounds 7 h then compound-free media 17 h; for TC50 DENV-2 (24 h): Huh7, compounds 24 h
[6] = read-out: IC50 DENV-2 (7 + 17 h)

Structure (SMILES) | IC50 (SFV [1]) [µM] | inhibition at 10 µM (SFV [1]) [%] | inhibition at 10 µM (DENV-2) [%] | IC50 (DENV-2; [6]) [µM] | IC50 (DENV-2; read-out: IC50 DENV-2 (24 h)) [µM] | IC50 (SINV) [µM] | IC50 (DENV-1) [µM] | IC50 (DENV-3) [µM] | IC50 (YF17D) [µM] | IC50 (HCV) [µM] | IC50 (VSV VLP) [µM] | IC50 (RABV VLP) [µM] | IC50 (H5N1 VLP) [µM] | IC50 (EBOV VLP) [µM] | IC50 HIV (HIV-1) | Inhibition of DID-SFV de-quenching (in words) [2] | Activity when added before SFV or 30 and 60 min after internalisation (SFV [3]) | Time of Addition (SFV [3]) | Viruses Inhibited (viruses/VLPs tested) | TC50 SFV (7 h) (HeLa Kyoto cells) [µM] | other results
CCN(CC)Cc1cc(Nc2ccnc3cc(Cl)ccc23)ccc1O [Amodiaquine, Amodiaquine dihydrochloride dihydrate] | 8.5 | 73.3 | 92.1 | 12.7 | 17.2 | 11.3 | ~24.8 | ~25 | 5.3 | 4.2 | 11.2 | 23.5 | 13.6 | 0.9 | No inhibition | Intermediate levels of inhibition | act exclusively before (or at the stage of) fusion | Before fusion | Endosomal pH-dep. | >50 | IC50 ZIKV (ZIKV): No inhibition; IC50 (HSV-1; Human alphaherpesvirus 1, Vero, read-out: IC50 HSV (Vero)): 28.2 µM; IC50 VACV (VACV): No inhibition; TC50 SFV (7h) (HeLa Kyoto cells): >50000 µM; viability at 10 µM (in vitro [4]): 115%; viability at 10 µM (in vitro [5]): 79%; TC50 DENV-2 (7 + 17 h) (Huh7 cells): 44.2 µM; TC50 DENV-2 (24 h) (Huh7 cells): 18.4 µM
CC(C)COCC(CN(Cc1ccccc1)c1ccccc1)N1CCCC1 (centres unmarked) [Bepridil, Bepridil hydrochloride] | 9.5 | 91.2 | 97.8 | 15.2 | 12.1 | 14.6 | ~20 | ~20 | 7.1 | ~12.4 | 10.4 | 6.9 | 8.2 | 0.8 | No inhibition | Intermediate levels of inhibition | act exclusively before (or at the stage of) fusion | Before fusion | Endosomal pH-dep. | 34.9 | IC50 (ZIKV; Zika virus, Huh-7, read-out: IC50 ZIKV): ~25.2 µM; IC50 HSV (Vero) (HSV-1; virus, Vero cells): No inhibition; IC50 (VACV; Orthopoxvirus vaccinia, HeLa Kyoto, 8 h, read-out: IC50 VACV): 26.8 µM; TC50 SFV (7h) (HeLa Kyoto cells): 34900 µM; viability at 10 µM (in vitro [4]): 71.3%; viability at 10 µM (in vitro [5]): 48.7%; TC50 DENV-2 (7 + 17 h) (Huh7 cells): ~48.8 µM; TC50 DENV-2 (24 h) (Huh7 cells): ~23.4 µM
